Measurements as given in article PMC10590419, “Structural and mechanistic insights into the inhibition of respiratory syncytial virus polymerase by a non-nucleoside inhibitor” (Communications Biology, 2023).
Like-named read-outs stand apart in the source and are kept apart here.

Biological target: recombinant RSV L+P (Human respiratory syncytial virus A, UniProt P28887)
Experiment: Primed single nucleotide incorporation (SNI) gel assay, recombinant RSV L+P
Assay type: biochemical, Human RSV (strain A2)
Method: RNA polymerase reaction samples consisted of 0.2 μM recombinant RSV L-P polymerase, 0.2 μM of an RNA template (Le11 or Tr14), and 400 μM of a short primer (sequences as indicated in the figures), mixed in a buffer containing 50 mM Tris pH 7.4, 2 mM dithiothreitol and 6 mM MgCl2. For the assay in Fig. 1d, reactions were started by adding 100 nM [α-^32P]GTP (3000 Ci/mmol) tracer and incubated at 30 °C for 10 min. […] Reactions were stopped by adding an equal volume of gel loading buffer containing 90% formamide, 50 mM EDTA, 0.05% Xylene Cyanol, and Bromophenol Blue. Samples were denatured at 95 °C for 5 min and run on a 22.5% polyacrylamide urea sequencing gel at 80 W. The gel was transferred onto a Whatman cellulose chromatography paper (Millipore Sigma) and dried on a gel dryer (Bio-Rad) for 1 h. The dried gel was exposed to a phosphor-screen, scanned on a Typhoon phosphorimager (GE Healthcare), and quantified using ImageQuant (GE Healthcare).

[1] = 5 µM, le-11, +1 site, replicates, 5 µM
[2] = 5 µM, le-11, +3 site, replicates, 5 µM
[3] = 5 µM, tr-14, +1 site, replicates, 5 µM
[4] = le-11, +1 site, 0.00390625 uM, replicates, 0.00390625 µM
[5] = le-11, +1 site, 0.0078125 uM, replicates, 0.0078125 µM
[6] = le-11, +1 site, 0.015625 uM, replicates, 0.015625 µM
[7] = le-11, +1 site, 0.03125 uM, replicates, 0.03125 µM
[8] = le-11, +1 site, 0.0625 uM, replicates, 0.0625 µM
[9] = le-11, +1 site, 0.125 uM, replicates, 0.125 µM
[10] = le-11, +1 site, 0.25 uM, replicates, 0.25 µM
[11] = le-11, +1 site, 0.5 uM, replicates, 0.5 µM

recombinant RSV L+P, sequence (P28887 whole entry): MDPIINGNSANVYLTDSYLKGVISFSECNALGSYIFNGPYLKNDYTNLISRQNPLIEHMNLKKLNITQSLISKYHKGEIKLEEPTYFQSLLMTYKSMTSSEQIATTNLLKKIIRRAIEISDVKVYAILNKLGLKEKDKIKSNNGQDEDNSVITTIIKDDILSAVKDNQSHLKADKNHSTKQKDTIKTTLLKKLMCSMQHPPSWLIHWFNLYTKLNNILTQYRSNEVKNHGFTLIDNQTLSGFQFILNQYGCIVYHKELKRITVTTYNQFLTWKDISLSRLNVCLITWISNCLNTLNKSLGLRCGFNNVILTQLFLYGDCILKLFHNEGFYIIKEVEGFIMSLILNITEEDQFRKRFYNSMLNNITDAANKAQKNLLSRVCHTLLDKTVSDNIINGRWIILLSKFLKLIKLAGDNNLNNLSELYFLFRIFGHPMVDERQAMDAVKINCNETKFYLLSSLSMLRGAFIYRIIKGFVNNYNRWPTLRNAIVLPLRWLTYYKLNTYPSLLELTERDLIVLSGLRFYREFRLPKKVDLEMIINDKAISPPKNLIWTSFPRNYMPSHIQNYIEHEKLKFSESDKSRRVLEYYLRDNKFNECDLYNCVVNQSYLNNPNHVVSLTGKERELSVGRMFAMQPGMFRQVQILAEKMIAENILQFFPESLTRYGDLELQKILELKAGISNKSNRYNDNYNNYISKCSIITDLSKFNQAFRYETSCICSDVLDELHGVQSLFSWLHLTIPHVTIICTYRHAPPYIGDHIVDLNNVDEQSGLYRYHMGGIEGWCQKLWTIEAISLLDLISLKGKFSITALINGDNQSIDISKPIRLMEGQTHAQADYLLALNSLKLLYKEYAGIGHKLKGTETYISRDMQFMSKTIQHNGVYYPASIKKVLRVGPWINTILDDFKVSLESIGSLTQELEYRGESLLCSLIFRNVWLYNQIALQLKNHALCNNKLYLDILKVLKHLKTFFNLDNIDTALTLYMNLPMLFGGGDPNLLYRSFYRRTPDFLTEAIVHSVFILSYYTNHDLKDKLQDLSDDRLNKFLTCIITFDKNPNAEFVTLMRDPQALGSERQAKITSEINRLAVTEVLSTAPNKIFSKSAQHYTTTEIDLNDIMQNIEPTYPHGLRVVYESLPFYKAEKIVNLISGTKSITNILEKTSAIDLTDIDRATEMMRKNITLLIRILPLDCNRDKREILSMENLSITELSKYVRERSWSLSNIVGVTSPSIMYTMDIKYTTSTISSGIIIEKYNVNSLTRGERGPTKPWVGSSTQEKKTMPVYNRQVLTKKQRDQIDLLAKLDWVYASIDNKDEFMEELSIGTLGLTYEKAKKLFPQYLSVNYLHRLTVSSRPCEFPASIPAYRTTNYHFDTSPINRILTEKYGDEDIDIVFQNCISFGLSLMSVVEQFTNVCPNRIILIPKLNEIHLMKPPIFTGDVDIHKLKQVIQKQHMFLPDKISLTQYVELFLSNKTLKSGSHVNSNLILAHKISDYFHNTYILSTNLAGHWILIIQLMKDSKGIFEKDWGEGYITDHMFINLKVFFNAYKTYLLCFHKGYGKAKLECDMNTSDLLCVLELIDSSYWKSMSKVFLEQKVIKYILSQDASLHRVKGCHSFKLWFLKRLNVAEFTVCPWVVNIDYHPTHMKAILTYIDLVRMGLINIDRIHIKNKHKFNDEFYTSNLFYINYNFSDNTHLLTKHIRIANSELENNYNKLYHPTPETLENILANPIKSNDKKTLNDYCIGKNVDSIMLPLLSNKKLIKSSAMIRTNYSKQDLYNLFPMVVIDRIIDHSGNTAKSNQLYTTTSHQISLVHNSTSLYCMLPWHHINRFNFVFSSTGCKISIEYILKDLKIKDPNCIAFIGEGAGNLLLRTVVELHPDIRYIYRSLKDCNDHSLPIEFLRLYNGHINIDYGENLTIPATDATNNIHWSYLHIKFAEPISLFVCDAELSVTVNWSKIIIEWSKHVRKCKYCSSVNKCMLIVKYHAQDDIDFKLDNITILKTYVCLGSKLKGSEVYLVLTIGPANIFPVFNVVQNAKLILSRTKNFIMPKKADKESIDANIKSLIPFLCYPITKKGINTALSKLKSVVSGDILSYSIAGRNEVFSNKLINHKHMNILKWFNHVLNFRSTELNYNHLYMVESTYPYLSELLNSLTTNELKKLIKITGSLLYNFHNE
recombinant RSV L+P, sequence (P03421 whole entry, further chain): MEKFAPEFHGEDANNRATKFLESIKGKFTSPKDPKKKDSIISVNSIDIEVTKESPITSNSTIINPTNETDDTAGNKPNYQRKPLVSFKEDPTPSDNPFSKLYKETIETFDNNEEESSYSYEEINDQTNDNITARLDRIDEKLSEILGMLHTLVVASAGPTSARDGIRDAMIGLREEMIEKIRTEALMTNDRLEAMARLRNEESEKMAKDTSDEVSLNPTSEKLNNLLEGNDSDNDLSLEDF

COc1cc(C(=O)NC[C@](O)(c2cc(C(C)(C)O)c(F)c(-c3ccc(F)cc3)n2)C(F)(F)F)cc2cc(C)nnc12 [JNJ-8003]
inhibition at 5 µM (5 µM, le-11, +1 site, N 2, read-out: % inhibition of SNI, AC>ACG, average): 88.8%
inhibition at 5 µM (5 µM, le-11, +1 site, N 2, read-out: % inhibition of SNI, ACG>ACGC, average): 2.75%
inhibition at 5 µM (5 µM, le-11, +1 site, N 2, read-out: % inhibition of SNI, ACGC>ACGCG, average): 94.8%
inhibition at 5 µM (5 µM, le-11, +1 site, N 2, read-out: % inhibition of SNI, ACGCG>ACGCGA, average): 96.9%
inhibition at 5 µM (5 µM, le-11, +1 site, N 2, read-out: % inhibition of SNI, ACGCGA>ACGCGAA, average): 85.3%
% inhibition of SNI, AC>ACG [1]: 88.48%
% inhibition of SNI, ACGC>ACGCG [1]: 96.78%
% inhibition of SNI, ACGCG>ACGCGA [1]: 98.45%
% inhibition of SNI, ACGCGA>ACGCGAA [1]: 88.02%
inhibition at 5 µM (5 µM, le-11, +1 site, replicates, read-out: % inhibition of SNI, AC>ACG): 89%
inhibition at 5 µM (5 µM, le-11, +1 site, replicates, read-out: % inhibition of SNI, ACGC>ACGCG): 92.7%
inhibition at 5 µM (5 µM, le-11, +1 site, replicates, read-out: % inhibition of SNI, ACGCG>ACGCGA): 95.4%
inhibition at 5 µM (5 µM, le-11, +1 site, replicates, read-out: % inhibition of SNI, ACGCGA>ACGCGAA): 82.6%
inhibition at 5 µM (5 µM, le-11, +3 site, N 2, read-out: % inhibition of SNI, GC>GCG, average): 96.5%
inhibition at 5 µM (5 µM, le-11, +3 site, N 2, read-out: % inhibition of SNI, GCG>GCGA, average): 74.8%
inhibition at 5 µM (5 µM, le-11, +3 site, N 2, read-out: % inhibition of SNI, GCGA>GCGAA, average): 97.6%
inhibition at 5 µM (5 µM, le-11, +3 site, N 2, read-out: % inhibition of SNI, GCGAA>GCGAAA, average): 93.8%
% inhibition of SNI, GC>GCG [2]: 97.71%
% inhibition of SNI, GCG>GCGA [2]: 79.85%
% inhibition of SNI, GCGA>GCGAA [2]: 98.25%
% inhibition of SNI, GCGAA>GCGAAA [2]: 91.04%
inhibition at 5 µM (5 µM, le-11, +3 site, replicates, read-out: % inhibition of SNI, GC>GCG): 95.3%
inhibition at 5 µM (5 µM, le-11, +3 site, replicates, read-out: % inhibition of SNI, GCG>GCGA): 69.8%
inhibition at 5 µM (5 µM, le-11, +3 site, replicates, read-out: % inhibition of SNI, GCGA>GCGAA): 97%
inhibition at 5 µM (5 µM, le-11, +3 site, replicates, read-out: % inhibition of SNI, GCGAA>GCGAAA): 96.5%
inhibition at 5 µM (5 µM, tr-14, +1 site, N 2, read-out: % inhibition of SNI, AC>ACG, average): 88.2%
inhibition at 5 µM (5 µM, tr-14, +1 site, N 2, read-out: % inhibition of SNI, ACG>ACGA, average): 8.03%
inhibition at 5 µM (5 µM, tr-14, +1 site, N 2, read-out: % inhibition of SNI, ACGA>ACGAG, average): 95%
inhibition at 5 µM (5 µM, tr-14, +1 site, N 2, read-out: % inhibition of SNI, ACGAG>ACGAGA, average): 88.8%
inhibition at 5 µM (5 µM, tr-14, +1 site, N 2, read-out: % inhibition of SNI, ACGAGA>ACGAGAA, average): 90%
% inhibition of SNI, AC>ACG [3]: 84.25%
% inhibition of SNI, ACGA>ACGAG [3]: 93.02%
% inhibition of SNI, ACGAG>ACGAGA [3]: 89.36%
% inhibition of SNI, ACGAGA>ACGAGAA [3]: 89.66%
inhibition at 5 µM (5 µM, tr-14, +1 site, replicates, read-out: % inhibition of SNI, AC>ACG): 92.2%
inhibition at 5 µM (5 µM, tr-14, +1 site, replicates, read-out: % inhibition of SNI, ACGA>ACGAG): 96.9%
inhibition at 5 µM (5 µM, tr-14, +1 site, replicates, read-out: % inhibition of SNI, ACGAG>ACGAGA): 88.2%
inhibition at 5 µM (5 µM, tr-14, +1 site, replicates, read-out: % inhibition of SNI, ACGAGA>ACGAGAA): 90.3%
SNI to the 3-mer primer from the +1 site (in words) (le and tr promoter RNA): did not inhibit
pACG formation, % inhibition [4]: 21.7616%
pACGCG formation, % inhibition [4]: 22.5312%
inhibition at 0.00390625 µM (le-11, +1 site, 0.00390625 uM, replicates, read-out: pACG formation, % inhibition): 15.7%
inhibition at 0.00390625 µM (le-11, +1 site, 0.00390625 uM, replicates, read-out: pACGC formation, % inhibition): 22.3%
inhibition at 0.00390625 µM (le-11, +1 site, 0.00390625 uM, replicates, read-out: pACGCG formation, % inhibition): 29.7%
pACG formation, % inhibition [5]: 22.0299%
pACGCG formation, % inhibition [5]: 31.4378%
inhibition at 0.0078125 µM (le-11, +1 site, 0.0078125 uM, replicates, read-out: pACG formation, % inhibition): 27.9%
inhibition at 0.0078125 µM (le-11, +1 site, 0.0078125 uM, replicates, read-out: pACGC formation, % inhibition): 23.6%
inhibition at 0.0078125 µM (le-11, +1 site, 0.0078125 uM, replicates, read-out: pACGCG formation, % inhibition): 35.9%
pACG formation, % inhibition [6]: 38.1202%
pACGCG formation, % inhibition [6]: 40.5036%
inhibition at 0.015625 µM (le-11, +1 site, 0.015625 uM, replicates, read-out: pACG formation, % inhibition): 38.1%
inhibition at 0.015625 µM (le-11, +1 site, 0.015625 uM, replicates, read-out: pACGC formation, % inhibition): 28%
inhibition at 0.015625 µM (le-11, +1 site, 0.015625 uM, replicates, read-out: pACGCG formation, % inhibition): 35%
pACG formation, % inhibition [7]: 56.5591%
pACGCG formation, % inhibition [7]: 63.5179%
inhibition at 0.03125 µM (le-11, +1 site, 0.03125 uM, replicates, read-out: pACG formation, % inhibition): 61.9%
inhibition at 0.03125 µM (le-11, +1 site, 0.03125 uM, replicates, read-out: pACGC formation, % inhibition): 28.5%
inhibition at 0.03125 µM (le-11, +1 site, 0.03125 uM, replicates, read-out: pACGCG formation, % inhibition): 63.6%
pACG formation, % inhibition [8]: 90.7902%
pACGCG formation, % inhibition [8]: 93.3045%
inhibition at 0.0625 µM (le-11, +1 site, 0.0625 uM, replicates, read-out: pACG formation, % inhibition): 93.3%
inhibition at 0.0625 µM (le-11, +1 site, 0.0625 uM, replicates, read-out: pACGC formation, % inhibition): 29.3%
inhibition at 0.0625 µM (le-11, +1 site, 0.0625 uM, replicates, read-out: pACGCG formation, % inhibition): 92.5%
pACG formation, % inhibition [9]: 92.6859%
pACGCG formation, % inhibition [9]: 94.8621%
inhibition at 0.125 µM (le-11, +1 site, 0.125 uM, replicates, read-out: pACG formation, % inhibition): 94.3%
inhibition at 0.125 µM (le-11, +1 site, 0.125 uM, replicates, read-out: pACGC formation, % inhibition): 30.8%
inhibition at 0.125 µM (le-11, +1 site, 0.125 uM, replicates, read-out: pACGCG formation, % inhibition): 94.8%
pACG formation, % inhibition [10]: 91.0112%
pACGCG formation, % inhibition [10]: 93.3897%
inhibition at 0.25 µM (le-11, +1 site, 0.25 uM, replicates, read-out: pACG formation, % inhibition): 94.2%
inhibition at 0.25 µM (le-11, +1 site, 0.25 uM, replicates, read-out: pACGC formation, % inhibition): 17.7%
inhibition at 0.25 µM (le-11, +1 site, 0.25 uM, replicates, read-out: pACGCG formation, % inhibition): 95.2%
pACG formation, % inhibition [11]: 89.7151%
pACGCG formation, % inhibition [11]: 94.5159%
